Assay results as given in patent publication US11046720B2, “Dimethylphosphine oxide compound” (GUIZHOU INOCHINI TECHNOLOGY CO., LTD, priority 2018, dated 2021).
Read-outs that look alike come from different tables or passages of the source.

Tests used:
[1] = target: T1, LRRK2 full-length human recombinant protein (Homo sapiens, UniProt Q5S007); test: In vitro evaluation of LRRK2 kinase inhibitory activity (HTRF / TR-FRET, LRRKtide); format: biochemical; settings: 57 μM ATP, 0.4 uM Fluorescein-ERM (LRRKtide) peptide
T1 construct: express LRRK2 full-length human recombinant protein in Sf9 cells of insects; GST; made in house; host or cells: Sf9 insect cells (baculovirus)
Experimental: Experimental purpose: to detect transfer of energy signals (ratio of fluorescence signals: […]) after the phosphate group of phosphorylated Fluorescein-ERM (LRRKtide) peptide binds with LanthaScreen® Tb-pERM (pLRRKtide) antibody using homogeneous time-resolved fluorescence. Calculate IC50 for LRRK2 inhibition of the compound to be assayed.
1. Reaction solution: 10 mM 4-(2-hydroxyethyl) piperazine-1-ethanesulfonic acid (pH 7.5); 2 mM magnesium chloride; 0.5 mM glycol-bis-(2-aminoethylether)-N; 0.002% primary alcohol ethoxylate, 1 mM dithiothreitol and 1% DMSO;
2. Assay solution: TR-FRET Dilution Buffer;
3. LRRK2 human recombinant protein: use GST tag and baculovirus to express LRRK2 full-length human recombinant protein in Sf9 cells of insects;
4. Substrate: 0.4 uM Fluorescein-ERM (LRRKtide) peptide; 57 uM ATR
Resonance energy transfer of Fluorescein-ERM (LRRKtide) peptide and LanthaScreen® Tb-pERM (pLRRKtide) antibody between […].
1. Add DMSO solution of the compound to be assayed through the Echo550 non-contact nano-liter acoustic droplet ejection system;
2. Prepare mixed solution of enzyme and polypeptide with freshly prepared reaction solution. Add the mixed solution to the reaction cavity and warm it up at room temperature for 20 minutes in advance;
3. Add 57 μM ATP to initiate reaction, which lasts for 90 minutes at room temperature;
4. Add fluorescein-ERM (LRRKtide) peptide, LanthaScreen® Tb-pERM (pLRRKtide) antibody and 10 mM ethylene diamine tetraacetic acid to the assay system. The reaction lasts for 60 minutes at room temperature. Detect yellow light signals with Em/Ex 520/485.
5. Measure enzyme activity inhibition relative to DMSO blank control group according to the signal ratio, and calculate IC50 by fitting curves with the software XLfit5.

LRRK2 (pSer935) = target: T2, LRRK2 (pSer935) (Homo sapiens, UniProt Q5S007); test: In vitro evaluation of inhibitory activity for LRRK2 cell (pSer935), 293T cells transfected with pcmv-flag-lrrk2, MSD; format: cell-based
T2 construct: expressed in transfected cells; host or cells: 293T cells
Experimental: Take 293T cells out of liquid nitrogen and put them in water at 37° C. After ice has fully thawed, transfer the cells to 5 mL warm culture medium. Discard the supernatant through centrifugation, and culture the suspended cells in the culture medium as new cells.
Culture the 293T cells in the culture medium for two to three days.
Plant 1.4×10^6/293T cells on a culture plate. After two days of culturing, cells will multiply to 5×10^6, so planting cells on N+1 plates is enough for performing experiments on N 96-well plates.
1) Add 5 μl (0.5 μg/μl) pcmv-flag-Irrk2 to 145 μl DMEM culture medium, and mix them evenly with a straw;
6) Incubate the culture plate inside a humidified incubator with 5% carbon dioxide for 20 to 24 hours at 37° C.
3. (Day 3) Plant the 293T Cells on the 96-Well Plate;
3) Transfer 50 μl inhibitor containing culture medium to the cell culture plate;
4) Incubate the culture plate inside a humidified incubator with 5% carbon dioxide for 20 to 24 hours at 37° C.;
5) Extract 300 μl inhibitor containing culture medium with a dropper. Take 200 μl inhibitor containing culture medium and add 100 μl decomposer into the culture medium. After the plate has been sealed, it shall be shaken for 30 minutes at 4° C.
1) Add 2 μg/25 μl labeled antibody to the MSD plate to incubate for 2 hours; (50 μl 3.9 μg/μl Flag antibody+2.5 ml fetal bovine serum per plate). Maintain centrifugation for 10 s (1,000 rpm);
5) Transfer 12.5 μl lysis buffer and 12.5 μl cell lysis buffer to the MSD plate to incubate for 1 hour at room temperature;
7) Dilute ps935 antibody at 1:200, and add 25 μl antibody to incubate for 1 hour;
9) Dilute goat anti-rabbit antibody at 1:500, and add 25 μl antibody to the incubation plate to incubate for 1 hour;
13) After incubation for about 3 minutes, read data over 15 minutes.

[2] = Pharmacokinetic evaluation in C57BL/6 mice, brain tissues and plasma; format: in vivo; settings: oral, 5 mg/kg; for Kp / AUC(0-t) / Tmax / Cmax / half-life: male, C57BL/6, mouse; for Kp: brain/plasma, read-out: drug concentration ratio between brain tissues and plasma (B/P)
Experimental: Experimental purpose: to study pharmacokinetics of the compounds in vivo in C57BL/6 mice—drug concentration ratio between brain tissues and plasma
Experimental materials: C57BL/6 mice (male, 8 weeks old, weight: 25 g-30 g)
Assay Pharmacokinetic Features of Glires after they are Orally Administered the Compounds According to Standard Schemes.
In the experiment, the candidate compounds are prepared into 1 mg/mL mixed suspension, and mice are orally administered once. The menstruum for oral administration is 10% dimethyl sulfoxide (DMSO)/10% polysorbate/20% PEG-400 aqueous solution. This project uses male C57BL/6 mice, which are orally administered drugs at a dose of 5 mg/kg. Collect the whole brain 0.5, 1, 2 and 4 hours after the administration. Homogenize tissue samples with 15 mM [[…] (pH=7.4) buffer and methanol (volume ratio: 2:1)] at a ratio of 1:5 (w:v). Equally divide the homogenate into 2 samples: one for assay and the other for standby use. Besides, collect plasma 0.5, 1, 2 and 4 hours after administration. Centrifugate with 3,000 g relative centrifugal force within half an hour after collection at about 4° C. for 15 minutes to separate supernatant and obtain plasma samples. Store the plasma samples in polypropylene tubes; rapidly freeze them on dry ice and keep them at −80° C. till LC/MS/MS assay. Add internal standard precipitated protein of acetonitrile solution and fully mix them to extract supernatant samples via centrifugation. Quantitatively analyze plasma concentration by LC-MS/MS assay and calculate pharmacokinetic parameters such as maximal concentration (Cmax), half-life (T1/2), maximal time (Tmax), drug concentration in different tissues after administration (AUC0-last), and drug concentration ratio between brain tissues and plasma (B/P).

[3] = test system: LRRK2 phosphorylation in brain tissues; test: In vivo pharmacological experiment: LRRK2 phosphorylation in brain tissues of mice (western blot); set-up: species or system C57BL/6J mice; settings: oral, 10 mg/kg, once, 1 hour after administration
Experimental: Animals: C57BL/6J mice (male, 6-7 weeks old, weight: 20 g-22 g).
Grouping: Weigh all mice one day ahead of the experiment and divide them into 6 groups at random according to their weight, with 4 mice in each group. Exclude too heavy and too light mice, to ensure that average weight of all groups is the same.
The animals of each group are orally administered menstruum or the compound to be assayed in chronological order as shown in Table 4. One mouse is administered every 2 minutes. 1 hour after administration, all animals are successively euthanized with carbon dioxide in chronological order.
(1) After protein determination of brain tissue samples by BCA, apply 4% to 15% precast gel in an equal amount of protein samples.
(3) Perform protein electrophoresis at 200 V for 30 minutes. Then, use Midi PVDF Transfer Packs for membrane transfer for 7 minutes. Next, block them with TBS Blocker at room temperature for 1 hour.
(4) Prepare 5% milk with skimmed milk powder. Then, formulate antibodies P-LRRK2 (add 20 μl antibody to 5 mL 5% milk at 1:250), total-LRRK2 (add 10 μl antibody to 5 ml 5% skimmed milk at 1:500), p-Rabl0 (add 10 μl antibody to 5 mL 5% skimmed milk at 1:500) and p-actin (add 5 μl antibody to 5 mL 5% milk at 1:1000), and incubate the antibodies overnight. (5) Recycle the primary antibodies and rinse membranes with TBS for three times, 10 minutes each time. […]

[4] = brain tissues, read-out: AUC0-last Brain Tissues
[5] = brain tissues, read-out: Tmax Brain Tissues
[6] = plasma, read-out: AUC0-last Plasma
[7] = plasma, read-out: T1/2 Plasma (converted)
[8] = brain tissues, read-out: T1/2 Brain Tissues (converted)

T2 sequence (Q5S007 whole entry): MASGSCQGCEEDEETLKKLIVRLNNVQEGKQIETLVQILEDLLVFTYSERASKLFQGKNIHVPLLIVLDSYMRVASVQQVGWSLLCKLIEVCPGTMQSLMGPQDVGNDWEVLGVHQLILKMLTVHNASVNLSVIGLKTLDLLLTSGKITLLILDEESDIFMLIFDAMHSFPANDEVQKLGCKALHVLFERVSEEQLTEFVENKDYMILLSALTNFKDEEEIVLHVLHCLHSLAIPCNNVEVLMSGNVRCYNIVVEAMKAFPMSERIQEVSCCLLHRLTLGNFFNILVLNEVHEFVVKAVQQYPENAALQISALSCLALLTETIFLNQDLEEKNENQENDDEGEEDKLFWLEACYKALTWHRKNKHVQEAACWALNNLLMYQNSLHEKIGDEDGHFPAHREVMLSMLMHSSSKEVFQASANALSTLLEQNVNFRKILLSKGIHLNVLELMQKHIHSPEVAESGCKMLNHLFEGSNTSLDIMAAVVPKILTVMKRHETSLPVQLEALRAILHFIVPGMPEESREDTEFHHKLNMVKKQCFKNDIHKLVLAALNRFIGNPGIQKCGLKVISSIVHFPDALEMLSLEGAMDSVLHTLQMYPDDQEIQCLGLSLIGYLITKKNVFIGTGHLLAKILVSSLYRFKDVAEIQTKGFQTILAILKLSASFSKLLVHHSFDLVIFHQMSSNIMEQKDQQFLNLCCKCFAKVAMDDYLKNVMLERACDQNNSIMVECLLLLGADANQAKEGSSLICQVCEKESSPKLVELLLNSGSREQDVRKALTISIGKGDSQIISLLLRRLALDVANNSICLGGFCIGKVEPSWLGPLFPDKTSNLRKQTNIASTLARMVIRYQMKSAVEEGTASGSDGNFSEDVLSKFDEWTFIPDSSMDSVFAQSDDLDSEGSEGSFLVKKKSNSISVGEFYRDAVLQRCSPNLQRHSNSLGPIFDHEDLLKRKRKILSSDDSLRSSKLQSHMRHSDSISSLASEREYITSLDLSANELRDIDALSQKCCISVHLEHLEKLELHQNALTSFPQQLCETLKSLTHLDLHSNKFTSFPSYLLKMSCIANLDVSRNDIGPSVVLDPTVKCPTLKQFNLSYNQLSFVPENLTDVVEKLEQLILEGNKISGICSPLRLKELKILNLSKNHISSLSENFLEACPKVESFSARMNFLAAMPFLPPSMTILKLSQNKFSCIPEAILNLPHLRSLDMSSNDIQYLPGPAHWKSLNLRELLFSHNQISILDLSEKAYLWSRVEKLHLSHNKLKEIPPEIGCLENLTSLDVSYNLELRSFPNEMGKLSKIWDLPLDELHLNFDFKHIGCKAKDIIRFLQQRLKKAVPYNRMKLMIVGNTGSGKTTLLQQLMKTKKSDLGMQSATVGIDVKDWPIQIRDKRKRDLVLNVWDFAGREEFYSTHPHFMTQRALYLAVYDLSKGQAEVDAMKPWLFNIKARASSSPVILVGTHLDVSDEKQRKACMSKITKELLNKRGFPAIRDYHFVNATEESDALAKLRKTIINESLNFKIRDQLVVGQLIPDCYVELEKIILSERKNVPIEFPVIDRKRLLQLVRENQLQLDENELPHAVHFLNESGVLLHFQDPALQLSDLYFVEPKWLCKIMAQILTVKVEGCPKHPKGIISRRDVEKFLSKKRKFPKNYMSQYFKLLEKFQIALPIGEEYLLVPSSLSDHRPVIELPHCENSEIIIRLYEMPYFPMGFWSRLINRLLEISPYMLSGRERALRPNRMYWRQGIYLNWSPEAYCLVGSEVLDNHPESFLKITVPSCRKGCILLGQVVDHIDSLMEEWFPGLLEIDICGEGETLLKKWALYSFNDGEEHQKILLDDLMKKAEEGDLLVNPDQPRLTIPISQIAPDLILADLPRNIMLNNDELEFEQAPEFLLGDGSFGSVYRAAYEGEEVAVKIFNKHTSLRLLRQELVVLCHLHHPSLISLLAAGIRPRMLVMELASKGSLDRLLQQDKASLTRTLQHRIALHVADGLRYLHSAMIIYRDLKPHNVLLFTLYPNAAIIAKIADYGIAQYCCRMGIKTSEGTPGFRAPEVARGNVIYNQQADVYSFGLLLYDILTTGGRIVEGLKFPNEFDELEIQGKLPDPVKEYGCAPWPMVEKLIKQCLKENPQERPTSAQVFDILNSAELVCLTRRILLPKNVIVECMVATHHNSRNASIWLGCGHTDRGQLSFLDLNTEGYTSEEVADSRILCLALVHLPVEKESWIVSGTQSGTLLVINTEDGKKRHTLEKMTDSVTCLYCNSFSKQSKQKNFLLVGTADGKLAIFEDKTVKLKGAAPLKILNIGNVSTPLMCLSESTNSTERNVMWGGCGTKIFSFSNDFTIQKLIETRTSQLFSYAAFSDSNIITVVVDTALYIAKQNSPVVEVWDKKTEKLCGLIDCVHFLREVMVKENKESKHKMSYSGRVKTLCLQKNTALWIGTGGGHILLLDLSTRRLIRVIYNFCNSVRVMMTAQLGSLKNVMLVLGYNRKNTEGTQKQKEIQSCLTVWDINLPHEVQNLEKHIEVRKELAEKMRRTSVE
T1 sequence (Q5S007 whole entry): as above

| SMILES | IC50 [1] [nM] | IC50 (LRRK2 (pSer935)) [nM] | Kp [2] | AUC(0-t) [2, 4] [µM·h] | Tmax [2, 5] [min] | Cmax ([2]; plasma) [nM] | AUC(0-t) [2, 6] [µM·h] | Tmax ([2]; plasma, read-out: Tmax Plasma) [min] | Cmax Brain Tissues ([2]; brain tissues) [nM] | further results |
| --- | --- | --- | --- | --- | --- | --- | --- | --- | --- | --- |
| COc1nc(N2CCC3(CCOC3)C2)ccc1Nc1ncc(Cl)c(Nc2ccccc2P(C)(C)=O)n1 (stereo not drawn) [Embodiment 1] | 21 | – | – | – | – | – | – | – | – | – |
| COc1nc(N2CCC3(CCCOC3)C2)ccc1Nc1ncc(Cl)c(Nc2ccccc2P(C)(C)=O)n1 (stereo not drawn) [Embodiment 2] | 24.4 | – | – | – | – | – | – | – | – | – |
| COc1nc(N2CC3(CCOCC3)C2)ccc1Nc1ncc(Cl)c(Nc2ccccc2P(C)(C)=O)n1 [Embodiment 3] | 6.2 | 4.3 | 0.14 | 0.192 | 30 | 1180 | 1.39 | 30 | 217 | half-life [2, 7]: 35.4 min |
| COc1nc(N2CCC3(CCCCO3)C2)ccc1Nc1ncc(Cl)c(Nc2ccccc2P(C)(C)=O)n1 (stereo not drawn) [Embodiment 4] | 34.2 | – | – | – | – | – | – | – | – | – |
| COc1nc(N2CCC3(CCCO3)C2)ccc1Nc1ncc(Cl)c(Nc2ccccc2P(C)(C)=O)n1 (stereo not drawn) [Embodiment 5] | 8.2 | 4 | – | – | – | – | – | – | – | – |
| COc1nc(N2CC3(CCCOC3)C2)ccc1Nc1ncc(Cl)c(Nc2ccccc2P(C)(C)=O)n1 [Embodiment 6] | 2.9 | 3.3 | – | – | – | – | – | – | – | – |
| COc1nc(N2CC3(CCCCO3)C2)ccc1Nc1ncc(Cl)c(Nc2ccccc2P(C)(C)=O)n1 [Embodiment 7] | 8.5 | 10.9 | – | – | – | – | – | – | – | – |
| COc1nc(N2CCC3(CCOCC3)CC2)ccc1Nc1ncc(Cl)c(Nc2ccccc2P(C)(C)=O)n1 [Embodiment 8] | 7.2 | – | – | – | – | – | – | – | – | – |
| COc1nc(N2CC3(CCOC3)C2)ccc1Nc1ncc(Cl)c(Nc2ccccc2P(C)(C)=O)n1 [Embodiment 9] | 7.8 | 4.7 | 0.2 | 0.489 | 30 | 2600 | 2.48 | 30 | 604 | half-life [2, 8]: 21.6 min; half-life [2, 7]: 33.6 min |
| COc1nc(N2CCC3(CCOCC3)C2)ccc1Nc1ncc(Cl)c(Nc2ccccc2P(C)(C)=O)n1 [Embodiment 10] | 21.6 | – | – | – | – | – | – | – | – | – |
| COc1nc(N2CC3(CC(OC)C3)C2)ccc1Nc1ncc(Cl)c(Nc2ccccc2P(C)(C)=O)n1 [Embodiment 11] | 5.3 | 4.5 | 0.41 | 0.597 | 30 | 1560 | 1.45 | 30 | 698 | half-life [2, 8]: 22.2 min; half-life [2, 7]: 28.2 min |
| COc1nc(N2CC3(COC3)C2)ccc1Nc1ncc(Cl)c(Nc2ccccc2P(C)(C)=O)n1 [Embodiment 12] | 1.6 | 3.7 | 0.14 | 0.476 | 30 | 3630 | 3.46 | 30 | 576 | half-life [2, 8]: 23.4 min; half-life [2, 7]: 36 min |
| COc1nc(N2CC3(C2)CC(F)(F)C3)ccc1Nc1ncc(Cl)c(Nc2ccccc2P(C)(C)=O)n1 [Embodiment 13] | 9.1 | – | 0.52 | 1.16 | 30 | 1200 | 2.25 | 30 | 726 | half-life [2, 8]: 43.2 min; half-life [2, 7]: 58.8 min |
| COc1nc(N2CC3(CCC3)C2)ccc1Nc1ncc(Cl)c(Nc2ccccc2P(C)(C)=O)n1 [Embodiment 14] | 15.2 | – | 0.96 | 4.2 | 60 | 1650 | 4.39 | 60 | 2042 | – |
| COc1nc(N2CC3(C2)CC3(F)F)ccc1Nc1ncc(Cl)c(Nc2ccccc2P(C)(C)=O)n1 [Embodiment 15] | 7.4 | – | 0.54 | 2.15 | 30 | 2150 | 4.02 | 30 | 1436 | half-life [2, 8]: 37.8 min; half-life [2, 7]: 45 min |
| COc1ncc(N2CC3(CCOC3)C2)cc1Nc1ncc(Cl)c(Nc2ccccc2P(C)(C)=O)n1 [Embodiment 16] | 10.6 | – | – | – | – | – | – | – | – | – |
| COc1ncc(N2CCC3(CCOCC3)C2)cc1Nc1ncc(Cl)c(Nc2ccccc2P(C)(C)=O)n1 [Embodiment 17] | 27.7 | – | – | – | – | – | – | – | – | – |
| COc1ncc(N2CC3(COC3)C2)cc1Nc1ncc(Cl)c(Nc2ccccc2P(C)(C)=O)n1 [Embodiment 18] | 4.6 | 86.1 | – | – | – | – | – | – | – | – |
| COc1ncc(N2CC3(CCOCC3)C2)cc1Nc1ncc(Cl)c(Nc2ccccc2P(C)(C)=O)n1 [Embodiment 19] | 11.9 | – | – | – | – | – | – | – | – | – |
| COc1c(Nc2ncc(Cl)c(Nc3ccccc3P(C)(C)=O)n2)ccnc1N1CC2(CCOC2)C1 [Embodiment 20] | 1.6 | 22 | – | – | – | – | – | – | – | – |
| COc1c(Nc2ncc(Cl)c(Nc3ccccc3P(C)(C)=O)n2)ccnc1N1CC2(CCC2)C1 [Embodiment 21] | 36.8 | – | – | – | – | – | – | – | – | – |
| COc1c(Nc2ncc(Cl)c(Nc3ccccc3P(C)(C)=O)n2)ccnc1N1CC2(COC2)C1 [Embodiment 22] | 2.6 | 44 | – | – | – | – | – | – | – | – |
| CCNc1nc(Nc2cc(F)c(C(=O)N3CCOCC3)cc2OC)ncc1C(F)(F)F [GNE-7915] | – | – | – | – | – | – | – | – | – | inhibition of LRRK2 phosphorylation in brain tissues [3]: inhibits FRRK2 phosphorylation |
